The test addresses Eukaryotic translation initiation factor 4H (Homo sapiens, UniProt Q15056). The experiment in a line: eIF4H binding inhibition – biochemical, uHTS, fluorescence polarization, translation initiation inhibitor project, primary screen (AID 2012). In general terms: Polarisation of emitted light reports the rotation of a fluorescent probe.
`O=C(O)c1ccc(N=NCc2cc3c(cc2[N+](=O)[O-])OCO3)cc1`: the IC50 worked out at 21.8 µM.
Under `COc1ccc2c(c1)=C(NNC(=O)Cc1cccs1)C(=O)N=2` stands 11 µM; under `CCn1c(=NC(=O)c2ccc(-n3c(O)ccc3O)cc2)sc2c(OC)ccc(OC)c21` [4-[2,5-bis(oxidanylidene)pyrrolidin-1-yl]-N-(3-ethyl-4,7-dimethoxy-1,3-benzothiazol-2-ylidene)benzamide], 14.7 µM.
Under `CC1(C)Oc2ccc3ccc(=O)oc3c2C(CN=O)=C1Cl` [9-chloro-2-keto-8,8-dimethyl-pyrano[2,3-f]chromene-10-carbaldehyde oxime] stands 100 µM.
Under `COc1cc(C)cc(C(=O)O)c1C1C(=O)C(=O)c2c(O)cccc2C1=O` (centres undefined) [MLS000877007] stands 5.43 µM; under `O=C1N=c2ccccc2=C1NNC(=O)c1cc(-c2cccs2)n[nH]1` [N'-(2-oxoindol-3-yl)-5-thiophen-2-yl-1H-pyrazole-3-carbohydrazide], 11.5 µM; under `CC1=NC(=O)NC(c2ccco2)C1C(=O)OC(C)C` (centres undefined) [SMR000120838], 34.7 µM.
`COc1ccc(CN=Nc2nc(O)c(CC(=O)O)s2)cc1OCc1ccc(Cl)cc1Cl` [[2-({3-[(2,4-dichlorobenzyl)oxy]-4-methoxybenzylidene}hydrazono)-4-oxo-1,3-thiazolidin-5-yl]acetic acid]: the IC50 was 14.7 µM.
Compound `CC[N+](C)(CC)CCCC(N=O)C(O)(c1ccccc1)c1ccccc1` (centres undefined) [diethyl-(5-hydroxy-4-hydroxyimino-5,5-diphenylpentyl)-methylammonium;iodide] gave an IC50 of 100 µM.

As a reminder, the IC50 is the midpoint of a concentration-inhibition curve. A low value points to inhibition by little substance.

Source of the values: BindingDB's records for doi:10.7270/Q26W98HW (Burnham Center For Chemical Genomics, 2009).
